Experimental data taken from US9540613B2, “Methods for producing insulin-secreting beta cells from human pluripotent stem cells” (Wisconsin Alumni Research Foundation, priority 2013, dated 2017).

Legend:
[1] = tested on: PDX1 and insulin protein expression in H1 cells; test: Flow cytometry of PDX1 and insulin protein expression at end of Stage 4; type: cell-based, human; details: for PDX1 and insulin double positive cells: loss of both nicotinamide and Exendin-4 from Stage 4 medium
Excerpt: To quantify insulin and PDX1 protein expression we optimized a flow cytometry assay. […] The INS-1 cell line is an immortalized pancreatic beta cell line that expresses both PDX1 and insulin. On the bottom left, is our negative control, unstained H1 cells differentiated for 18 days. On the right, is H1 cells differentiated by the current protocol through day 18 stained with Insulin-PB and PDX1-AF488. […] Only 8-11% of the cells are PDX1 and insulin double positive.
To examine protein expression we collected cells at the end of Stage 4 and examined them by flow cytometry.
Thus, the effect of Noggin is context dependent and synergistic with nicotinamide and Exendin-4.

[2] = tested on: PDX1, NKX6.1, Neurogenin 3 and insulin gene expression; test: QPCR gene expression of endoderm and pancreatic markers in differentiated cells; type: cell-based, human; details: presence or absence of nicotinamide at Stage 3
Method: QPCR was performed at the end of Stage 4 ([…] Day 18) to examine gene expression of PDX1, a marker of pancreatic epithelium and progenitor cells, insulin, a marker of beta cells, and Sox9 which is expressed in the developing pancreatic epithelium. The gene expression is compared to undifferentiated cells collected at Day 0 and β-Actin is the internal control. […] Human Fetal Pancreas (HFP), gestation 14-20 weeks, is represented as a positive control.
In FIG. 19, the gene expression is compared to undifferentiated cells collected at Day 0 and B-Actin is the internal control. On the y axis is delta CT (instead of fold change), thus, the lower the value the greater the gene expression.
First, alterations at Stage 3 and 4 altered gene expression minimally. […] On the y axis is delta CT (instead of fold change), thus, the lower the value the greater the gene expression. […] In contrast the addition of Noggin at Stage 4, decreased PDX1 and NKX6.1 gene expression and increased Neurogenin 3 expression. There was no difference in insulin gene expression following the addition of Noggin to Stage 4.

[3] = addition of nicotinamide at Stage 3, cells at end of Stage 4

Row | Compound | protein expression of either PDX1 or insulin ([1]; loss of Exendin-4 from Stage 4 medium) | PDX1 and insulin double positive cells [1] | insulin protein expression ([1]; FGF2 instead of FGF7 at Stage 2) | gene expression (delta CT) [2] | PDX1 protein expression [1, 3] | double positive PDX and insulin positive cells [1, 3] | insulin protein expression [1, 3] | protein expression ([1]; loss of nicotinamide from Stage 4 medium)
1 | Exendin-4: a long-acting GLP-1 agonist | little to no difference | increases PDX1 and insulin double positive cells |  |  |  |  |  | 
2 | FGF2: Basic fibroblast growth factor |  |  | less insulin protein expression |  |  |  |  | 
3 | NC(=O)c1cccnc1 [nicotinamide] |  | increases PDX1 and insulin double positive cells |  | did not alter gene expression | decreased | little difference | increased | little to no loss
